Reference: publication PMC10444862, “Using macromolecular electron densities to improve the enrichment of active compounds in virtual screening” (Communications Chemistry, 2023)

Target: SARS-COV-2 3CLpro (having a P132H mutation, 3CLpro^P132H) (Severe acute respiratory syndrome coronavirus 2, UniProt P0DTD1, P3395H)
Assay type: biochemical

Structure (SMILES)	Inhibition Rate ([Cpd.]=40 uM)
C/C(=N\Nc1nc2c(c(=O)[nH]c(=O)n2C)n1Cc1cccc2ccccc12)c1ccc(O)cc1 [D1, C/C(=N\Nc1nc2c(c(=O)[nH]c(=O)n2C)n1Cc1cccc2ccccc12)c1ccc(O)cc1]	1.49
O=C(CN1C(=O)NC2(CCCC2)C1=O)Nc1ccccc1C(=O)Nc1ccc2c(c1)OCO2 [D2, O=C(CN1C(=O)NC2(CCCC2)C1=O)Nc1ccccc1C(=O)Nc1ccc2c(c1)OCO2]	0.56
Cc1c(C(=O)NCCC2=CCCCC2)sc2ncnc(N(C)c3ccccc3)c12 [D3, Cc1c(C(=O)NCCC2=CCCCC2)sc2ncnc(N(C)c3ccccc3)c12]	0.63
COc1ccc(Cn2cc(C(CC(=O)N3CCCC3)c3ccccc3F)c3ccccc32)cc1 (stereo not drawn) [D4, COc1ccc(Cn2cc(C(CC(=O)N3CCCC3)c3ccccc3F)c3ccccc32)cc1]	< 0.5
COc1ccccc1-n1c(=O)c2c3c(sc2n(Cc2cccc(F)c2)c1=O)CN(C(C)=O)CC3 [D5, COc1ccccc1-n1c(=O)c2c3c(sc2n(Cc2cccc(F)c2)c1=O)CN(C(C)=O)CC3]	< 0.5
CC(C)C(NC(=O)c1ccccc1Cl)C(=O)OCC(=O)Nc1cccc(S(N)(=O)=O)c1 (stereo not drawn) [D6, CC(C)C(NC(=O)c1ccccc1Cl)C(=O)OCC(=O)Nc1cccc(S(N)(=O)=O)c1]	< 0.5
COc1ccccc1-n1c(=O)c2c3c(sc2n(Cc2cccc(Cl)c2)c1=O)CN(C(C)=O)CC3 [D7, COc1ccccc1-n1c(=O)c2c3c(sc2n(Cc2cccc(Cl)c2)c1=O)CN(C(C)=O)CC3]	< 0.5
O=C(c1ccsc1)N1CCC[C@H](n2c(=O)n(Cc3cccc(F)c3)c3cccnc32)C1 [D8, O=C(c1ccsc1)N1CCC[C@H](n2c(=O)n(Cc3cccc(F)c3)c3cccnc32)C1]	< 0.5
Cc1ccccc1N1C(=O)C(=Cc2ccc(N3CCOCC3)cc2)c2ccccc2C1=O [D9, Cc1ccccc1N1C(=O)C(=Cc2ccc(N3CCOCC3)cc2)c2ccccc2C1=O]	< 0.5
C/C(=N\Nc1nc2c(c(O)nc(=O)n2C)n1Cc1cccc2ccccc12)c1ccc(O)cc1 [D10, C/C(=N\Nc1nc2c(c(O)nc(=O)n2C)n1Cc1cccc2ccccc12)c1ccc(O)cc1]	< 0.5
Cc1ccc(N2C(=O)N(CC(=O)Nc3cccc(S(N)(=O)=O)c3)C(=O)C2C)cc1 (stereo not drawn) [D11, Cc1ccc(N2C(=O)N(CC(=O)Nc3cccc(S(N)(=O)=O)c3)C(=O)C2C)cc1]	< 0.5
CC1CC(C)CN(C(=O)c2ccccc2NC(=O)N2CC(O)CC(F)(F)C2)C1 (stereo not drawn) [D12, CC1CC(C)CN(C(=O)c2ccccc2NC(=O)N2CC(O)CC(F)(F)C2)C1]	< 0.5
CC(C)[C@H](NS(=O)(=O)c1ccccc1F)C(=O)OCC(=O)Nc1cccc(S(N)(=O)=O)c1 [D13, CC(C)[C@H](NS(=O)(=O)c1ccccc1F)C(=O)OCC(=O)Nc1cccc(S(N)(=O)=O)c1]	< 0.5
Cc1c(C(=O)N(C)Cc2ccccc2)sc2ncnc(N(C)c3ccccc3)c12 [D14, Cc1c(C(=O)N(C)Cc2ccccc2)sc2ncnc(N(C)c3ccccc3)c12]	< 0.5
Cn1nccc1C(=O)N1CCC[C@H](n2c(=O)n(Cc3ccccc3)c3cccnc32)C1 [D15, Cn1nccc1C(=O)N1CCC[C@H](n2c(=O)n(Cc3ccccc3)c3cccnc32)C1]	< 0.5
O=CN1CCCN(C(=O)CC2C(=O)NCCN2Cc2cccc(Oc3ccccc3)c2)CC1 (stereo not drawn) [D16, O=CN1CCCN(C(=O)CC2C(=O)NCCN2Cc2cccc(Oc3ccccc3)c2)CC1]	< 0.5
COc1ccccc1-n1c(=O)c2c3c(sc2n(Cc2ccccc2)c1=O)CN(C(C)=O)CC3 [D17, COc1ccccc1-n1c(=O)c2c3c(sc2n(Cc2ccccc2)c1=O)CN(C(C)=O)CC3]	< 0.5

Structure (SMILES)	Inhibition Rate ([Cpd.]=40 uM)
O=C(c1ccco1)N1CCC[C@H](n2c(=O)n(Cc3ccccc3)c3cccnc32)C1 [D18, O=C(c1ccco1)N1CCC[C@H](n2c(=O)n(Cc3ccccc3)c3cccnc32)C1]	< 0.5
O=C(Nc1ccccc1)N1CCCC(C(=O)N2CC(C(=O)N3CCCCC3)Oc3ccccc32)C1 (stereo not drawn) [D19, O=C(Nc1ccccc1)N1CCCC(C(=O)N2CC(C(=O)N3CCCCC3)Oc3ccccc32)C1]	< 0.5
C[C@@]1(O)C[C@H](O)CN(C(=O)[C@@H](N)Cc2ccc(O)cc2)C[C@H]1n1cnc2c(N)nc(N)nc21 [D20, C[C@@]1(O)C[C@H](O)CN(C(=O)[C@@H](N)Cc2ccc(O)cc2)C[C@H]1n1cnc2c(N)nc(N)nc21]	< 0.5
O=C(NC(c1ccccc1)c1ccc2[nH]cnc2c1)C1=NN(C2CCS(=O)(=O)C2)C(=O)CC1 (stereo not drawn) [D21, O=C(NC(c1ccccc1)c1ccc2[nH]cnc2c1)C1=NN(C2CCS(=O)(=O)C2)C(=O)CC1]	< 0.5
CC(=O)N1CCc2c(sc3c2c(=O)n(-c2ccccc2)c(=O)n3CC(=O)c2ccc(F)cc2)C1 [D22, CC(=O)N1CCc2c(sc3c2c(=O)n(-c2ccccc2)c(=O)n3CC(=O)c2ccc(F)cc2)C1]	< 0.5
COCCn1/c(=N/C(=O)c2c(F)cccc2F)sc2cc(S(N)(=O)=O)ccc21 [D23, COCCn1/c(=N/C(=O)c2c(F)cccc2F)sc2cc(S(N)(=O)=O)ccc21]	< 0.5
O=C(c1cccc(O)c1)N1C[C@@H](c2cc(F)cc(F)c2)[C@@H]2[C@H]1C1CCN2CC1 [D24, O=C(c1cccc(O)c1)N1C[C@@H](c2cc(F)cc(F)c2)[C@@H]2[C@H]1C1CCN2CC1]	< 0.5
Cn1c(NC(=O)c2cnn3c(C(F)(F)F)cc(-c4cccc5ccccc45)nc23)nc2ccccc21 [E1, Cn1c(NC(=O)c2cnn3c(C(F)(F)F)cc(-c4cccc5ccccc45)nc23)nc2ccccc21]	0.82
CCn1c(=O)n(CCC(=O)NC(Cc2ccccc2)c2nc3ccccc3[nH]2)c2ccccc21 (stereo not drawn) [E2, CCn1c(=O)n(CCC(=O)NC(Cc2ccccc2)c2nc3ccccc3[nH]2)c2ccccc21]	0.67
CC(=O)N1CCc2c(sc3c2c(=O)n(-c2ccc(F)cc2)c(=O)n3Cc2cc(C)ccc2C)C1 [E3, CC(=O)N1CCc2c(sc3c2c(=O)n(-c2ccc(F)cc2)c(=O)n3Cc2cc(C)ccc2C)C1]	0.92
O=C1/C(=C\NN(Cc2ccccc2)c2ccccc2)c2ccccc2C(=O)N1c1cccc(Cl)c1 [E4, O=C1C(=CNN(Cc2ccccc2)c2ccccc2)c2ccccc2C(=O)N1c1cccc(Cl)c1]	0.65
CC(=O)N1CCc2c(sc3c2c(=O)n(-c2ccccc2)c(=O)n3Cc2cc(C)ccc2C)C1 [E5, CC(=O)N1CCc2c(sc3c2c(=O)n(-c2ccccc2)c(=O)n3Cc2cc(C)ccc2C)C1]	0.64
O=C(c1cccnc1)N1CCc2c([nH]c3ccccc23)C1c1cccc(C(F)(F)F)c1 (stereo not drawn) [E6, O=C(c1cccnc1)N1CCc2c([nH]c3ccccc23)C1c1cccc(C(F)(F)F)c1]	0.55
CC(=O)N1C(C(=O)N(CCc2ccccc2)Cc2ccccc2)CSC1c1ccccc1O (stereo not drawn) [E7, CC(=O)N1C(C(=O)N(CCc2ccccc2)Cc2ccccc2)CSC1c1ccccc1O]	0.63
Cc1cccc(Cn2c(=O)c(C(=O)NCc3ccco3)nn(-c3ccccc3F)c2=O)c1 [E8, Cc1cccc(Cn2c(=O)c(C(=O)NCc3ccco3)nn(-c3ccccc3F)c2=O)c1]	0.66
CCc1ccccc1N(CC(=O)Nc1ccccc1C(=O)NC(C)CC)S(=O)(=O)c1ccccc1 (stereo not drawn) [E9, CCc1ccccc1N(CC(=O)Nc1ccccc1C(=O)NC(C)CC)S(=O)(=O)c1ccccc1]	0.54
